The values that follow come from article PMC7290078, “Agonist bias and agonist‐dependent antagonism at corticotrophin releasing factor receptors” (Pharmacology Research & Perspectives, 2020).

The target of test [1] is T1, CRF2 receptor (hCRF2α) (Homo sapiens, UniProt Q13324).
T1 construct: host or cells: Cos7 cells, transient transfection (PEI), pcDNA3.0/3.1 vector
T1 sequence (Q13324 1-411): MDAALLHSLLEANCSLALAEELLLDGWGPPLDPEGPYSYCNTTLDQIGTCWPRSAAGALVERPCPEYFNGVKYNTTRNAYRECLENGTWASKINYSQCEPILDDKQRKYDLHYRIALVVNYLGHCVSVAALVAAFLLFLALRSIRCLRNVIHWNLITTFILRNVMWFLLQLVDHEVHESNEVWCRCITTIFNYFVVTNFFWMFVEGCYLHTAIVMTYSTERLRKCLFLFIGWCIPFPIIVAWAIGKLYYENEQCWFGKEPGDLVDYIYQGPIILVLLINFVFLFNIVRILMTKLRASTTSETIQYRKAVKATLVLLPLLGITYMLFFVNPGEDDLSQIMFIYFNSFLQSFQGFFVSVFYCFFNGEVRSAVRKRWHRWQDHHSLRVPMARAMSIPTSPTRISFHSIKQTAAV
The test is described as follows: Antagonism of agonist-mediated cAMP accumulation in Cos7 cells expressing CRF2 receptors. It is filed as cell-based. As to conditions: for antagonist potency (pKB): hCRF2α, global Schild analysis, mean ± SEM, n = 5. The source says:
(§1) Plasmids containing hCRF1α and hCRF2α (GenBank accession numbers AY457172 and AY449734) were obtained from the cDNA Resource Centre (Bloomsburg University) and are referred to as CRF1 and CRF2 in this manuscript. Hemagglutinin (HA) epitope‐tagged human Calcitonin (CT) receptor (CT(a) splice variant) and myc‐tagged human RAMP1 were used as described previously. ^27 HA‐tagged human calcitonin receptor‐like receptor (CLR), N‐terminal FLAG‐tagged human RAMP3 and N‐terminal myc‐tagged human RAMP3 were a gift from Professor David Poyner (Aston University) and Professor Patrick Sexton (Monash University), respectively. N‐terminal FLAG‐tagged human RAMP2 was used as described previously. ^28 All receptors and RAMPs were cloned in pcDNA3.0 or pcDNA3.1 plasmid vectors. All plasmid inserts were sequenced at the Centre for Genomics, Proteomics and Metabolomics (University of Auckland) and the sequences were verified prior to use.
Cos7, HEK‐293S, and HEK‐293T cells were cultured as described previously. ^28 , ^29 Cos7 cells were originally supplied by the ATCC to Associate Professor Nigel Birch (University of Auckland). HEK‐293S cells were a gift from Professor David Poyner (Aston University) and HEK‐293T cells a gift from Professor John Taylor (University of Auckland). Briefly, all cell lines were cultured in Dulbecco's Modified Eagle Medium (DMEM) supplemented with 8% heat inactivated fetal bovine serum (FBS) and maintained in a humidified incubator at 37°C with 5% CO2. For transfection, cells were counted (Countess CounterTM; Life Technologies) and plated at a density of 20 000 cells per well in 96‐well plates. The cells were transiently transfected 48 hours prior to assaying using polyethylenimine (PEI), as described previously. ^28 , ^29 In all experiments a total of 0.25 μg DNA was transfected per well. In the majority of experiments 0.25 μg DNA of receptor‐containing plasmid or the pcDNA3.1 plasmid without an insert was used. For experiments involving RAMPs, 0.125 μg of receptor DNA and 0.125 μg of RAMP‐containing plasmid DNA were transfected to give a 1:1 ratio of receptor to RAMP. Where the RAMP or receptor were transfected alone, the ratio of DNA was made up with the pcDNA3.1 plasmid.
cAMP accumulation in Cos7 cells transfected with hCRF1α or hCRF2α receptors was measured using the LANCE cAMP detection assay kit (PerkinElmer Life and Analytical Sciences) as described previously. ^30 Briefly, culture media was removed and replaced with DMEM containing 0.1% bovine albumin serum (BSA) and 1 mmol/L 3‐isobutyl‐1‐methylxanthine (IBMX) for 30 minutes at 37°C. Cells were incubated for an additional 15 minutes at 37°C with media or agonist concentrations of 1 pmol/L to 1 µmol/L for agonist only assays or 10 pmol/L to 10 µmol/L concentrations for antagonist experiments. Antagonists were added simultaneously or immediately prior to the addition of agonists. To stop cell stimulation and extract cAMP, the contents of the wells were replaced with 50 µL absolute ethanol. Samples were left at −20°C for a minimum of 10 minutes. The ethanol was evaporated and replaced with 50 µL of cAMP detection buffer. Samples were shaken for 15 minutes before 5 µL cell lysate was transferred to a white 384‐well optiplate and processed for cAMP quantification as described previously. ^31 Samples were read using an Envision plate reader (PerkinElmer). cAMP concentrations were determined from a standard curve generated in duplicate.
In all experiments the position of peptides and antagonists (pharmacology) or transfected receptors (ELISAs) on assay plates was randomized during each independent experiment, which are independent biological replicates. In all cases, duplicate, triplicate, or quadruplicate technical replicates were conducted for each independent experiment.
For orientation: cAMP levels reflect the balance of adenylyl cyclase and phosphodiesterase activity.

Test [2] addresses T1, CRF2 receptor (hCRF2α). The test is described as follows: Antagonism of agonist-mediated IP1 accumulation in Cos7 cells expressing CRF2 receptors. It is filed as cell-based.
Source text: as §1
Cos7, HEK‐293S, and HEK‐293T cells were cultured as described previously. ^28 , ^29 Cos7 cells were originally supplied by the ATCC to Associate Professor Nigel Birch (University of Auckland). HEK‐293S cells were a gift from Professor David Poyner (Aston University) and HEK‐293T cells a gift from Professor John Taylor (University of Auckland). Briefly, all cell lines were cultured in Dulbecco's Modified Eagle Medium (DMEM) supplemented with 8% heat inactivated fetal bovine serum (FBS) and maintained in a humidified incubator at 37°C with 5% CO2. For transfection, cells were counted (Countess CounterTM; Life Technologies) and plated at a density of 20 000 cells per well in 96‐well plates. […]
The IP‐one Gq assay kit (Cisbio) was used to quantify accumulated myo‐inositol‐1‐phosphate (IP1), a by‐product of IP3 produced after receptor‐mediated Gαq activation in Cos7 and HEK‐293S cells. […] Fifteen microliters of sample was then transferred to a 384‐well optiplate and read by an Envision plate reader (PerkinElmer). IP1 concentrations were calculated from a standard curve generated in duplicate. […]

Another test concerns CRF2 receptor. Also on record: method as in PMID 11123370, PMID 12615952. As to conditions: cited from earlier work.

No end group written: not given here. Some results are limits rather than exact numbers.

Take `CCC(CC)Nc1cc(C)nc(Oc2c(C)cc(C)cc2C)c1C` [CP‐376,395]: the “effect on CRF‐mediated cAMP accumulation” value on CRF2 receptor (hCRF2α) [1] (100 µM, CRF2 receptor) was “no effect”. The “effect on UCN1‐mediated cAMP accumulation” value on CRF2 receptor (hCRF2α) [1] (100 µM, CRF2 receptor) is recorded as “no effect”. Moreover, the “antagonist potency (pKB)” value at CRF2 receptor (hCRF2α) [1] (agonist CRF, cAMP) is under 4; at CRF2 receptor (hCRF2α) [1] (agonist UCN1, cAMP), under 4; on CRF2 receptor (hCRF2α) [2] (agonist UCN1, IP1, hCRF2α, Gaddum method for insurmountable antagonism, mean ± SEM, n = 6) it was 3.40 ± 0.29. Moreover, the “effect on CRF‐mediated IP1 accumulation” value on CRF2 receptor (hCRF2α) [2] (100 µmol/L, CRF2 receptor) is listed as “appeared to be abolished”. Besides, the “effect on agonist E max” value on CRF2 receptor (hCRF2α) [2] (IP1, CRF2 receptor, F tests) was “a reduction in E max”.
Regarding “IVLSLDVPIGLLQILLEQARARAAREQATTNARILARVGHC-NH2 (C-terminus assumed) [UCN2]”, the “binding affinity in words” value with CRF2 receptor was “high affinity”.
